Assay type in all cases: cell-based
One assay addresses T1, mouse SMO^WT (Mus musculus, UniProt P56726).
T1 construct: expressed in transfected cells
In words: Mouse assay: Gli1 qPCR in MEF cells stably expressing mouse SMO WT. Particulars: mSHh-treated, 24 hours; for IC50: Gli1 inhibition by qPCR, read-out: Mouse WT pIC50 (converted); for Mouse WT % Inh: percentage Gli1 inhibition. The protocol:
(§1) Cell culture. All materials were purchased from Sigma-Aldrich, unless otherwise stated.
(§2) Compound treatment. […] After 1 hour incubation, cells were treated with assay medium containing mSHh prepared at 2.5× of final assay concentrations specified in the text and incubated for a further 24 hours at 37′C in a humidified 95% air/5% CO2 atmosphere prior to qPCR analysis.
(§3) Cell lysis and one-step qPCR. The Cells-to-CT™ 1-Step TaqMan® Kit was used in conjunction with TaqMan primer-probe assays for the detection of Gli1 (FAM, Mm00494654_m1) and Gusb (VIC, Mm01197698_m1) genes (all purchased from Life Technologies). Following 24 hours cell treatment, spent medium was removed and cells were washed with PBS before the application of lysis and stop solution as per manufacturer's instructions. The qPCR reactions were run in a 384-well PCR plate using master mix prepared according to manufacturer's instructions and cell lysate samples from treatment wells. Real-time PCR amplification was detected using the Bio-Rad CFX384 Touch PCR system. Four experimental replicates (two cell replicates and two qPCR replicates) were performed for each compound concentration tested. Real-time data were analysed using the CFX Maestro software (Bio-Rad) and obtained expression values were converted to percentage Gli1 inhibition by normalising to the average Gli1 expression of mSHh-treated control samples.

A further assay addresses T2, mouse SMO^D473H (Mus musculus, UniProt P56726, D477H).
T2 construct: expressed in transfected cells
In words: Mouse assay: Gli1 qPCR in MEF cells stably expressing mouse SMO D473H. As to conditions: mSHh-treated, 24 hours; for IC50: Gli1 inhibition by qPCR, read-out: Mouse D473H pIC50 (converted); for Mouse D473H % Inh: percentage Gli1 inhibition. The protocol:
as §1, §2, §3

A further assay addresses T3, mouse SMO^W535L (Mus musculus, UniProt P56726, W539L).
T3 construct: expressed in transfected cells
In words: Mouse assay: Gli1 qPCR in MEF cells stably expressing mouse SMO W535L. As to conditions: mSHh-treated, 24 hours; for IC50: Gli1 inhibition by qPCR, read-out: Mouse W535L pIC50 (converted); for Mouse W535L % Inh: percentage Gli1 inhibition. The protocol: as §1, §2, §3
For orientation: In qPCR the cycle at which signal appears reflects the starting amount.

Where only a bound is given, the exact number is not on record here.

T1 sequence (P56726 33-793): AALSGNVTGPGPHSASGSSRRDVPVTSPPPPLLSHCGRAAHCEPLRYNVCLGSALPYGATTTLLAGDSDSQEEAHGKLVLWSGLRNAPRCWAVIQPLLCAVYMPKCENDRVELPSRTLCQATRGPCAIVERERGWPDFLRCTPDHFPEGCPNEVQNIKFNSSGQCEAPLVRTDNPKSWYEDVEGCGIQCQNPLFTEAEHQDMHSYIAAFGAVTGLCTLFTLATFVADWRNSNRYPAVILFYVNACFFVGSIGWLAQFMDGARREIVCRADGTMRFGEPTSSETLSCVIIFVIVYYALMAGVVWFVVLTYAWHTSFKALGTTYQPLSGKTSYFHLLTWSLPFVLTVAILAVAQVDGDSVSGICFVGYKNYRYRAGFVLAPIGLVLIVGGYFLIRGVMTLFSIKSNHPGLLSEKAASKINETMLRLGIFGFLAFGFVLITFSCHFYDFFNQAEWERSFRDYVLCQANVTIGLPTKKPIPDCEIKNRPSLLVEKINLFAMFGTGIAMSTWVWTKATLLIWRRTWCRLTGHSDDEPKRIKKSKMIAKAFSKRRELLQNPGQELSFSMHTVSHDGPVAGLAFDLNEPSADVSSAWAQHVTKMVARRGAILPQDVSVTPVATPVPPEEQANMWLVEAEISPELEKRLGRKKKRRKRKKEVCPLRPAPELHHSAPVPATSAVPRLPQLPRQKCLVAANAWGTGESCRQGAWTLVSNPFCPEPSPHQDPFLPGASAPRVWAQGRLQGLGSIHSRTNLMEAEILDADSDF
T3 sequence (P56726 33-793 W539L): as the sequence (P56726 33-793) above, with W507L counted along it
T2 sequence (P56726 33-793 D477H): as the sequence (P56726 33-793) above, with D445H counted along it

Regarding `O=C(Nc1ccc(-c2nc(Cc3cc4c(cc3Cl)OCO4)n[nH]2)cc1)c1cccc(CN2CCS(=O)(=O)CC2)c1` [Example 3-29, N-[4-[3-[(6-Chloro-1,3-benzodioxol-5-yl)methyl]-1H-1,2,4-triazol-5-yl]phenyl]-3-[(1,1-dioxo-1,4-thiazinan-4-yl)methyl]benzamide], at mouse SMO^WT, the IC50 is 25.1 nM and the “Mouse WT % Inh” value worked out at 99.1%. On mouse SMO^D473H, the IC50 is 251 nM and the “Mouse D473H % Inh” value turned out to be 98.9%. Besides, on mouse SMO^W535L, the IC50 is 126 nM and the “Mouse W535L % Inh” value stood at 64.8%.

For `O=C(Nc1ccc(-c2nc(C3CCCN(Cc4ccccc4)C3)n[nH]2)cc1)c1cccc(CN2CCS(=O)(=O)CC2)c1` (stereo not shown) [Example 3-9, N-[4-[3-(1-Benzylpiperidin-3-yl)-1H-1,2,4-triazol-5-yl]phenyl]-3-[(1,1-dioxo-1,4-thiazinan-4-yl)methyl]benzamide], at mouse SMO^WT, the IC50 is 31.6 nM and the “Mouse WT % Inh” value is given as 95.1%. In addition, on mouse SMO^D473H, the IC50 is 316 nM and the “Mouse D473H % Inh” value was determined as 93.8%. At mouse SMO^W535L, the IC50 is 63.1 nM and the “Mouse W535L % Inh” value came out at 63.2%.

In the case of `CC1(C)CN(Cc2cccc(C(=O)Nc3ccc(-c4nc(C5CC5)n[nH]4)cc3)c2)CCS1(=O)=O` [Example 1-3, N-[4-(3-cyclopropyl-1H-1,2,4-triazol-5-yl)phenyl]-3-[(2,2-dimethyl-1,1-dioxo-1,4-thiazinan-4-yl)methyl]benzamide], on mouse SMO^WT, the IC50 was 20 nM and the “Mouse WT % Inh” value amounted to 99.4%. Further, on mouse SMO^D473H, the IC50 was 63.1 nM and the “Mouse D473H % Inh” value is 99.7%. Further, at mouse SMO^W535L, the IC50 was 158 nM and the “Mouse W535L % Inh” value came out at 62.6%.

For `O=C(Nc1ccc(-c2cc(C3CC3)[nH]n2)nc1)c1ccc(Cl)c(CN2CCS(=O)(=O)CC2)c1` [Example 5-3, 4-Chloro-N-[6-(5-cyclopropyl-1H-pyrazol-3-yl)pyridin-3-yl]-3-[(1,1-dioxo-1,4-thiazinan-4-yl)methyl]benzamide], on mouse SMO^WT, the IC50 was 63.1 nM and the “Mouse WT % Inh” value worked out at 98.6%.

Take `O=C(Nc1ccc(-c2nc(C3CC3)n[nH]2)cc1)c1ccc(F)c(CN2CCS(=O)(=O)CC2)c1` [Example 2-3, N-[4-(5-Cyclopropyl-1H-1,2,4-triazol-3-yl)phenyl]-3-[(1,1-dioxo-1,4-thiazinan-4-yl)methyl]-4-fluorobenzamide]: at mouse SMO^WT, the IC50 is 20 nM and the “Mouse WT % Inh” value worked out at 94.4%. For the same compound, on mouse SMO^D473H, the IC50 is 158 nM and the “Mouse D473H % Inh” value came out at 93.9%. At mouse SMO^W535L, the IC50 is 79.4 nM and the “Mouse W535L % Inh” value turned out to be 76.5%.

Consider `O=C(Nc1ccc(-c2nc(-c3ccc(C(F)(F)F)s3)n[nH]2)cc1)c1cccc(CN2CCS(=O)(=O)CC2)c1` [Example 3-16, 3-[(1,1-Dioxo-1,4-thiazinan-4-yl)methyl]-N-[4-[3-[5-(trifluoromethyl)thiophen-2-yl]-1H-1,2,4-triazol-5-yl]phenyl]benzamide], for which, at mouse SMO^WT, the IC50 was 100 nM and the “Mouse WT % Inh” value came out at 99.4%. Besides, on mouse SMO^D473H, the IC50 is 794 nM and the “Mouse D473H % Inh” value is 93.9%. Further, at mouse SMO^W535L, the IC50 is 794 nM and the “Mouse W535L % Inh” value stood at 58.5%.

Regarding `O=C(Nc1ccc(-c2noc(Cc3ccccc3)n2)cc1)c1cccc(CN2CCS(=O)(=O)CC2)c1` [Example 4-15, N-[4-(5-Benzyl-1,2,4-oxadiazol-3-yl)phenyl]-3-[(1,1-dioxo-1,4-thiazinan-4-yl)methyl]benzamide], at mouse SMO^WT, the IC50 is 6.31 nM and the “Mouse WT % Inh” value is 99.0%. Besides, on mouse SMO^D473H, the IC50 is 31.6 nM and the “Mouse D473H % Inh” value is recorded as 99.4%. In addition, at mouse SMO^W535L, the IC50 is 31.6 nM and the “Mouse W535L % Inh” value was found to be 82.0%.

Regarding `CC(C)c1n[nH]c(-c2ccc(NC(=O)c3cccc(CN4CCS(=O)(=O)CC4)c3)cc2)n1.Cl` [Example 3-1, 3-[(1,1-dioxo-1,4-thiazinan-4-yl)methyl]-N-[4-(3-propan-2-yl-1H-1,2,4-triazol-5-yl)phenyl]benzamide], on mouse SMO^WT, the IC50 was 20 nM and the “Mouse WT % Inh” value came out at 99.1%. In addition, on mouse SMO^D473H, the IC50 is 158 nM and the “Mouse D473H % Inh” value was 96.6%. For the same compound, on mouse SMO^W535L, the IC50 was 200 nM and the “Mouse W535L % Inh” value was determined as 77.1%.

Turning to `Cc1ccc(Cc2nc(-c3ccc(NC(=O)c4cccc(CN5CCS(=O)(=O)CC5)c4)cc3)no2)cc1` [Example 4-16, 3-[(1,1-Dioxo-1,4-thiazinan-4-yl)methyl]-N-[4-[5-[(4-methylphenyl)methyl]-1,2,4-oxadiazol-3-yl]phenyl]benzamide], on mouse SMO^WT, the IC50 was 2 nM and the “Mouse WT % Inh” value was 97.5%. At mouse SMO^D473H, the IC50 was 12.6 nM and the “Mouse D473H % Inh” value was determined as 98.8%. Further, on mouse SMO^W535L, the IC50 is 20 nM and the “Mouse W535L % Inh” value is given as 72.5%.

Turning to `COc1ccc(-c2n[nH]c(-c3ccc(NC(=O)c4cccc(CN5CCS(=O)(=O)CC5)c4)cc3)n2)cc1` [Example 3-12, 3-[(1,1-Dioxo-1,4-thiazinan-4-yl)methyl]-N-[4-[5-(4-methoxyphenyl)-1H-1,2,4-triazol-3-yl]phenyl]benzamide], at mouse SMO^WT, the IC50 is 12.6 nM and the “Mouse WT % Inh” value is given as 99.0%. On mouse SMO^D473H, the IC50 was 200 nM and the “Mouse D473H % Inh” value came out at 97.5%. For the same compound, at mouse SMO^W535L, the IC50 was 316 nM and the “Mouse W535L % Inh” value is given as 53.3%.

As for `O=C(Nc1ccc(-c2nc(Cc3ccccc3)n[nH]2)cc1)c1cccc(CN2CCS(=O)(=O)CC2)c1` [Example 3-17, N-[4-(3-Benzyl-1H-1,2,4-triazol-5-yl)phenyl]-3-[(1,1-dioxo-1,4-thiazinan-4-yl)methyl]benzamide], on mouse SMO^WT, the IC50 was 6.31 nM and the “Mouse WT % Inh” value was 99.4%. Also, at mouse SMO^D473H, the IC50 is 100 nM and the “Mouse D473H % Inh” value is 99.0%. For the same compound, on mouse SMO^W535L, the IC50 is 39.8 nM and the “Mouse W535L % Inh” value came to 54.3%.

Turning to `Cc1nc(-c2ccc(NC(=O)c3cccc(CN4CCS(=O)(=O)CC4)c3)cc2)oc1C` [Example 4-1, N-[4-(4,5-Dimethyl-1,3-oxazol-2-yl)phenyl]-3-[(1,1-dioxo-1,4-thiazinan-4-yl)methyl]benzamide], on mouse SMO^WT, the IC50 is 6.31 nM and the “Mouse WT % Inh” value is 99.2%. At mouse SMO^D473H, the IC50 is 50.1 nM and the “Mouse D473H % Inh” value is listed as 98.6%. Also, at mouse SMO^W535L, the IC50 is 63.1 nM and the “Mouse W535L % Inh” value is 78.6%.

In the case of `O=C(Nc1ccc(-c2nc(CC3CC3)n[nH]2)cc1)c1cccc(CN2CCS(=O)(=O)CC2)c1` [Example 3-7, N-[4-[3-(Cyclopropylmethyl)-1H-1,2,4-triazol-5-yl]phenyl]-3-[(1,1-dioxo-1,4-thiazinan-4-yl)methyl]benzamide], at mouse SMO^WT, the IC50 is 25.1 nM and the “Mouse WT % Inh” value is on record as 98.5%. Besides, on mouse SMO^D473H, the IC50 was 200 nM and the “Mouse D473H % Inh” value came to 97.3%. Also, at mouse SMO^W535L, the IC50 is 200 nM and the “Mouse W535L % Inh” value is 70.7%.

In the case of `O=C(Nc1ccc(-c2nc(-c3cccc(Oc4nccs4)c3)n[nH]2)cc1)c1cccc(CN2CCS(=O)(=O)CC2)c1` [Example 3-13, 3-[(1,1-Dioxo-1,4-thiazinan-4-yl)methyl]-N-[4-[3-[3-(1,3-thiazol-2-yloxy)phenyl]-1H-1,2,4-triazol-5-yl]phenyl]benzamide], at mouse SMO^WT, the IC50 is 79.4 nM and the “Mouse WT % Inh” value turned out to be 97.4%. In addition, at mouse SMO^D473H, the IC50 is 631 nM and the “Mouse D473H % Inh” value was determined as 78.5%. For the same compound, on mouse SMO^W535L, the IC50 is > 3310 nM and the “Mouse W535L % Inh” value is 76.7%.

For `Cc1ccc(Cc2n[nH]c(-c3ccc(NC(=O)c4cccc(CN5CCS(=O)(=O)CC5)c4)cc3)n2)cc1C` [Example 3-25, N-[4-[5-[(3,4-Dimethylphenyl)methyl]-1H-1,2,4-triazol-3-yl]phenyl]-3-[(1,1-dioxo-1,4-thiazinan-4-yl)methyl]benzamide], at mouse SMO^WT, the IC50 is 2 nM and the “Mouse WT % Inh” value was 98.5%. Also, at mouse SMO^D473H, the IC50 is 100 nM and the “Mouse D473H % Inh” value was 97.4%. Also, at mouse SMO^W535L, the IC50 was 39.8 nM and the “Mouse W535L % Inh” value came to 80.5%.

For `Cc1ccc(Cc2n[nH]c(-c3ccc(NC(=O)c4cccc(CN5CCS(=O)(=O)CC5)c4)cc3)n2)cc1` [Example 3-18, 3-[(1,1-Dioxo-1,4-thiazinan-4-yl)methyl]-N-[4-[5-[(4-methylphenyl)methyl]-1H-1,2,4-triazol-3-yl]phenyl]benzamide], at mouse SMO^WT, the IC50 is 3.16 nM and the “Mouse WT % Inh” value amounted to 98.5%. Also, at mouse SMO^D473H, the IC50 is 79.4 nM and the “Mouse D473H % Inh” value is given as 98.1%. In addition, on mouse SMO^W535L, the IC50 was 25.1 nM and the “Mouse W535L % Inh” value is reported as 65.7%.

With `Cc1oc(-c2ccc(NC(=O)c3ccc(Cl)c(CN4CCS(=O)(=O)CC4)c3)cn2)nc1Br` [Example 5-1, N-[6-(4-bromo-5-methyl-1,3-oxazol-2-yl)pyridin-3-yl]-4-chloro-3-[(1,1-dioxo-1,4-thiazinan-4-yl)methyl]benzamide], at mouse SMO^WT, the IC50 was 20 nM and the “Mouse WT % Inh” value is given as 99.3%.

The record behind these values is US20250136559A1, “SMO MODULATOR COMPOUNDS” (OMASS THERAPEUTICS LIMITED, priority 2022, published 2025).
